This is an account of results in patent publication US20080280933A1, “BENZIMIDAZOLYL COMPOUNDS” (priority 2006, published 2008).

T1 sequence (Q14416 19-872, species assumed): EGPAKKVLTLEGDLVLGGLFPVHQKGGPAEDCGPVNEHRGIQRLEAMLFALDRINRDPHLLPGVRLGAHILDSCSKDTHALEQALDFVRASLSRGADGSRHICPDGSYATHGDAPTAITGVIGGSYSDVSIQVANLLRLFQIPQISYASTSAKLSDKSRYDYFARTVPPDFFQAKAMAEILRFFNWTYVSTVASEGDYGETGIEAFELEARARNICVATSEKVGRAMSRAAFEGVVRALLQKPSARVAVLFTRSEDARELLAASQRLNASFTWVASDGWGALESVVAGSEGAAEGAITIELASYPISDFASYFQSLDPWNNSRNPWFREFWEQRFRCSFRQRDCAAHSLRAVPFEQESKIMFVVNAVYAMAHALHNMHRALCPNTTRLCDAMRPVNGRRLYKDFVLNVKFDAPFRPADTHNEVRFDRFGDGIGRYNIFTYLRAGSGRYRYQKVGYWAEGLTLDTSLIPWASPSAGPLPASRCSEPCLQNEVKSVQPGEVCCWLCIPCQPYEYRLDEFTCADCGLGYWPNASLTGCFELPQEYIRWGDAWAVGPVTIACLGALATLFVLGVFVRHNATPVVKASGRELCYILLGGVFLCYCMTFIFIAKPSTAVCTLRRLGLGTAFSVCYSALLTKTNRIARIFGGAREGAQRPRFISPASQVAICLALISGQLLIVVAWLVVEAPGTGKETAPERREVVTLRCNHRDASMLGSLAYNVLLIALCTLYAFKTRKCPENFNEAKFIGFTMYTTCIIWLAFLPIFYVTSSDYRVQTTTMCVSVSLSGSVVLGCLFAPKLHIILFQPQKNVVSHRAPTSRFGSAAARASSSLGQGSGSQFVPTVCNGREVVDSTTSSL

The first assay concerns the target T1, mGluR2 receptor (metabotropic glutamate receptor 2) (Homo sapiens, UniProt Q14416).
T1 construct: expressed in transfected cells
Put plainly: mGluR2 Potentiator Screen, FLIPR, EC10-EC20 glutamate challenge. The following applies: mGluR2 potentiator screen, Table 7; read-out: EC50. It is filed as cell-based. The method, then: Procedure for mGluR2 Potentiator Screen NLB Methods EC10-EC20 Challenge Cell Culture and Plating:
Cells used for this screen are HEK cells stably transfected with the mGluR2 receptor (metabotropic glutamate receptor 2) and the Gα15 G protein. Clones were identified by functional activity (FLIPR). Cells are grown in growth media containing: DMEM High Glucose with Glutamine and Na Pyruvate (GIBCO), 10% (v/v) Heat inactivate FBS (GIBCO) G418 500 ug/ml (from 50 mg/ml stock) (GIBCO) and Blasticidin 3 ug/ml (from 5 mg/ml stock made in H2O) (Invitrogen).
2 days before the assay cell are trypsinized with 0.25% trysin/EDTA (GIBCO), spun down at 1000 rpm for 5 minutes, resuspended in growth media and plated on polystyrene 384 well black wall/clear bottom poly-D-lysine coated plates at a density of approximately 18,000 cells/well in a volume of 50 μL per well. One day before the assay the growth media is removed from the plates by flicking and replaced with media containing DMEM High Glucose without Glutamine and Na Pyruvate (GIBCO) and 10% (v/v) dialyzed FBS (GIBCO). The reason for the removal of glutamine the day before the assay is to minimize the amount of glutamate that will be present during the assay, as endogenous glutarnate released from the cells can reduce the fluorescent response and interfere with the FLIPR screen.
FLIPR Methods and Data Analysis:
On the day of the assay, the FLIPR assay is performed using the following methods:
The pH is adjusted to 7.4 with 1M NaOH. Prepare a 2 mM (approx.) stock solution of Fluo-4.am (Molecular Probes) dye in DMSO −22 μl DMSO per 50 ug vial (440 μL per 1 mg vial). Make a 1 mM (approx.) flou-4, PA working solution per vial by adding 22 μl of 20% pluronic acid (PA) (Molecular Probes) in DMSO to each 50 ug vial (440 μL per 1 mg vial). Prepare a 250 mM Probenecid (Sigma) stock solution by dissolving 0.71 g into 5 ml 1N NaOH and 5 ml assay buffer (for each liter of assay wash buffer). Make 4 uM (approx.) dye incubation media by adding 2.50 ug vials per 11 ml DMEM high glucose without glutamine (220 ml per 1 mg vial). Add 110 μL probenecid stock per 11 ml (2.5 mM final [concentration]). To the dye media add 3 units/ml of glutamic-pyruvic transaminase (GPT, Sigma) and 3 mM Na Pyruvate. The assay has worked with dye concentrations from 2 uM to 8 uM dye as well. To the assay buffer from drug preparation, add 1.83 mls DMSO and 400 μL. 15.8% P104 (from New Leads biology) per liter for final concentrations of 0.18% DMSO and 0.006% P104. To the assay buffer for cell washing, add probenecid in the same manner and concentration that was used for the dye media.
Remove growth media from cell plates by flicking. Add 50 μl/well dye solution. Incubate 1 hour at 37° C. and 5% CO2. Remove dye solution and wash 3 times with assay buffer+probenecid (100 μl probenecid stock per 10 ml buffer), leaving 30 μL/well assay buffer. Wait at least 10-15 minutes. Compounds and agonist challenge additions are performed with the FLIPR. The in addition is for test compounds, which are added as 15 μL of 4× [concentration] of potentiator. The second 2nd addition is 15 μL of 4× [concentration] of agonist or challenge. This achieves 1× concentration of all compounds only after 2nd addition. The 1st and 2nd additions are performed separately using the FLIPR, which give 2 different data files. Compounds are pretreated at least 30 minutes before agonist addition.
Results are analyzed by dividing the peak fluorescent value of the FLIPR response by the […] to achieve a ratio response. The ratios are then analyzed by curve fitting programs. Since potent compounds can give an inverted U dose response curve (due to effects on endogenous glutamate by the potentiators) points are deleted at concentrations higher than the concentration that gives the maximum effect. Maximum values for dose response curves (forced fitting) are derived from standards on the plate.
Compound Preparation and Glutamate Challenge: […]
As to `CC[C@H](C)COc1ccc(Cl)cc1C1CCN(Cc2nc3ccccc3n2C)CC1` [compound 174], the EC50 is 447 nM.

On to `FCn1c(CN2CCC(c3cc(Cl)ccc3OCC3CCOC3)CC2)nc2ccccc21` (centres unmarked) [compound 204], for which the EC50 came to 3610 nM.

Regarding `FCCn1c(CN2CCC(c3cc(Cl)ccc3OCC3CCC3)CC2)nc2ccccc21` [compound 195], the 50% effective concentration (EC50) was 1390 nM.

Consider `Cn1c(CN2CCC(c3cc(Cl)ccc3OCC3CCOC3)CC2)nc2ccccc21` (centres unmarked) [compound 203], for which the EC50 worked out at 712 nM.

For the compound `Cn1c(CN2CCC(c3ccc(C(F)(F)F)cc3)CC2)nc2c(Br)cccc21` [compound 164], the EC50 is 838 nM.

Consider `CCCCOc1ccc(Cl)cc1C1CCN(Cc2nc3ccccc3n2CCF)CC1` [compound 186], for which the EC50 was found to be 246 nM.

Take `Clc1ccc(OCC2CCCO2)c(C2CCN(Cc3nc4ccccc4n3C3CC3)CC2)c1` (centres unmarked) [compound 206]: the EC50 came to 2600 nM.

The assay is the same for the next values; noted with them: read-out: EC50.
In the case of `CCN1CC2(CCN(Cc3nc4ccccc4n3C)CC2)c2ccccc21` [compound 110], the EC50 was found to be 4980 nM.

For `Cn1c(CN2CCC(c3ccccc3F)CC2)nc2cccc(F)c21` [compound 344], the EC50 was found to be 20.6 nM.

With `Cn1c(CN2CCC(c3ccc(C(F)(F)F)cc3)C(F)C2)nc2ccccc21` (centres unmarked) [compound 441], the EC50 stood at 157 nM.

In the case of `COc1ccccc1C1CCN(Cc2nc3cc(Br)ccc3n2C)CC1` [compound 263], the EC50 amounted to 242 nM.

Turning to `Cn1c(CN2CCC(c3ccc(C(F)(F)F)cc3F)CC2)nc2c(F)cccc21` [compound 398], the concentration for a half-maximal effect (EC50) came to 40.2 nM.

Take `CC(C)C(=O)N1CC2(CCN(Cc3nc4ccccc4n3C)CC2)c2cc(F)ccc21` [compound 17]: the EC50 was 3310 nM.

Turning to `Cn1c(CN2CCC(c3cccc(C(F)(F)F)c3)CC2)nc2cc(Cl)ccc21` [compound 381], the EC50 was found to be 1590 nM.

`Cn1c(CN2CCC3(CC2)CN(C(=O)COCc2ccccc2)c2ccccc23)nc2ccccc21` [compound 58]: the EC50 was 589 nM.

For `Cc1cccc2c1nc(CN1CCC(c3ccccc3F)CC1)n2C` [compound 267], the EC50 was found to be 249 nM.

As to “2-((4-(2-fluorophenyl)piperidin-1-yl)methyl)-6-methoxy-1-methyl-1H-benzo[d]imidazole [Entry 278]”, the EC50 worked out at 1620 nM.

On to `FCn1c(CN2CCC(c3ccc(C(F)(F)F)cc3)CC2)nc2ccccc21` [compound 255], for which the EC50 is 164 nM.

With `COc1ccccc1C1CCN(Cc2nc3ccccc3n2C)CC1` [compound 47], the EC50 was determined as 77.1 nM.

For the compound `Cc1nnsc1C(=O)N1CC2(CCN(Cc3nc4ccccc4n3C)CC2)c2cc(F)ccc21` [compound 18], the EC50 stood at 2450 nM.

Turning to `C[C@@H]1CN(Cc2nc3ccccc3n2C)CC[C@@H]1c1ccc(F)c(F)c1` (single isomer, unassigned) [Entry 472, 2-{[Cis-4-(3,4-Difluoro-phenyl)-3-methyl-piperidin-1-yl]methyl}-1-methyl-1H-benzoimidazole], the EC50 turned out to be 152 nM.

`Cn1c(CN2CCC(c3ccccc3OC(F)(F)F)CC2)nc2ccccc21` [compound 413]: the EC50 came out at 77.6 nM.

With `Cn1c(CN2CCC(c3cccc(C(F)(F)F)c3)CC2)nc2cc(F)ccc21` [compound 374], the EC50 is 245 nM.

Take `C#CCOc1ccc(Cl)cc1C1CCN(Cc2nc3ccccc3n2CF)CC1` [compound 237]: the EC50 was 302 nM.

In the case of `Cn1c(CN2CCC(c3ccccc3C(F)(F)F)CC2)nc2c(F)cccc21` [compound 394], the EC50 stood at 232 nM.

As to `C[C@@H]1CN(Cc2nc3ccccc3n2C)CC[C@@H]1c1ccc(F)c(Cl)c1` (relative stereo) [compound 456], the EC50 is 181 nM.

`COc1ccc(C(F)(F)F)cc1C1CCN(Cc2nc3cc(F)ccc3n2C)CC1` [compound 377]: the EC50 came out at 853 nM.

Consider `COc1ccccc1C1CCN(Cc2nc3cccc(F)c3n2C)CC1` [compound 343], for which the concentration giving a half-maximal response (EC50) came out at 16.6 nM.

For the compound `Cn1c(CN2CCC(c3cccc(C(F)(F)F)c3)CC2)nc2c(F)cccc21` [compound 396], the EC50 was found to be 123 nM.

Regarding `Cn1c(CN2CCC(c3ccc(C(F)(F)F)cc3)CC2)nc2cc(F)ccc21` [compound 350], the EC50 was 147 nM.

As to `CCCCOc1ccccc1C1CCN(Cc2nc3ccccc3n2C)CC1` [compound 95], the EC50 was found to be 1040 nM.

Take `Cn1c(CN2CCC3(CC2)CN(C(=O)c2ccco2)c2ccccc23)nc2ccccc21` [compound 63]: the EC50 was found to be 4510 nM.

Turning to `COc1ccccc1[C@H]1CCN(Cc2nc3ccccc3n2CCF)C[C@H]1C` (relative stereo) [compound 339], the EC50 stood at 604 nM.

Consider `COc1ccccc1C1CCN(Cc2nc3cc(N)ccc3n2C)CC1` [compound 281], for which the EC50 turned out to be 1510 nM.

With `CC(C)CCN1CC2(CCN(Cc3nc4ccccc4n3C)CC2)c2ccccc21` [compound 116], the EC50 stood at 3120 nM.

As for `COCn1c(CN2CCC(c3ccccc3F)CC2)nc2ccccc21` [compound 286], the EC50 came out at 4620 nM.

In the case of `COc1ccccc1C1CCN(Cc2nc3cc(C#N)ccc3n2C)CC1` [compound 283], the EC50 came out at 90.8 nM.

Consider `COc1cc(C(F)(F)F)ccc1C1CCN(Cc2nc3ccccc3n2CCF)CC1` [compound 357], for which the EC50 was 105 nM.

Turning to `COCCn1c(CN2CCC(c3ccccc3F)CC2)nc2ccccc21` [compound 249], the EC50 amounted to 251 nM.

Turning to `COCCn1c(CN2CCC(c3ccccc3C(F)(F)F)CC2)nc2ccccc21` [compound 250], the half-maximal effective concentration (EC50) was 545 nM.

Regarding `Cc1cc(F)ccc1C1CCN(Cc2nc3ccccc3n2C)CC1` [compound 310], the EC50 turned out to be 43.3 nM.

Regarding `Cc1cc(C)c2c(c1)C1(CCN(Cc3nc4ccccc4n3C)CC1)CN2CC1CCCO1` (centres unmarked) [compound 123], the EC50 is 5030 nM.

With `COc1ccccc1C1CCN(Cc2nc3c(C#N)cccc3n2C)CC1` [compound 266], the EC50 stood at 3350 nM.

Turning to `COc1ccccc1C1CCN(Cc2nc3cc(Cl)ccc3n2C)CC1` [compound 285], the EC50 amounted to 49.3 nM.

As for `Cc1ccc2c(c1)C1(CCN(Cc3nc4ccccc4n3C)CC1)CN2C(=O)c1c(C)noc1C` [compound 31], the EC50 came to 2040 nM.

As for `CCN1CC2(CCN(Cc3nc4ccccc4n3C)CC2)c2cc(F)ccc21` [compound 114], the EC50 was 2380 nM.

On to `Cn1c(CN2CCC(c3ccccc3OC3Cc4ccccc4C3)CC2)nc2ccccc21` [compound 102], for which the EC50 is 1500 nM.

On to `C[C@@H]1CN(Cc2nc3ccccc3n2C)CC[C@@H]1c1ccc(C(F)(F)F)cc1` (relative stereo) [compound 404], for which the EC50 stood at 471 nM.

Turning to `Cn1c(CN2CCC(c3ccc(C(F)(F)F)cc3)C(O)C2)nc2ccccc21` (centres unmarked) [compound 428], the EC50 was 1120 nM.

Consider `Cn1c(CN2CCC(c3ccc(F)cc3)CC2)nc2c(Br)cccc21` [compound 366], for which the EC50 was 2140 nM.

Consider `Cn1c(CN2CCC3(CC2)CN(C(=O)c2ccco2)c2ccc(Cl)cc23)nc2ccccc21` [compound 46], for which the EC50 was over 4860 nM.

Regarding `CC(Oc1ccccc1C1CCN(Cc2nc3ccccc3n2C)CC1)c1ccccc1` (centres unmarked) [compound 103], the EC50 is over 5640 nM.

For the compound `COc1ccccc1C1CCN(Cc2nc3cc(F)c(F)cc3n2C)CC1C` (centres unmarked) [compound 293], the EC50 came to 850 nM.

In the case of `COc1ccccc1C1CCN(Cc2nc3ccccc3n2CCF)CC1` [compound 240], the EC50 came out at 146 nM.

In the case of `C#CCOc1ccc(Cl)cc1C1CCN(Cc2nc3ccccc3n2CCF)CC1` [compound 236], the EC50 was found to be 74.1 nM.

As for `CCCCN1CC2(CCN(Cc3nc4ccccc4n3C)CC2)c2cc(Cl)ccc21` [compound 127], the concentration giving a half-maximal response (EC50) is 2810 nM.
